The structures appear in SMILES notation.

Holding throughout (assay): Growth inhibitory activity of compounds on BaF3 cell lines stably transfected with kinase (MTS, 48 h)
What all share (format): cell-based

In test [1] the target is T1, various mutants of kinase EGFR (BaF3 cell lines stably transfected with kinase) (Homo sapiens, UniProt P00533).
T1 construct: other: BaF3 cells stably transfected with EGFR Δ19Del; MTS, 48 h; other: BaF3 cell line stably transfected with EGFR Δ19Del
Particulars: BaF3 cell line stably transfected with EGFR Δ19Del, read-out: Δ19Del growth inhibitory activity IC50. An outline of the steps: (§1)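 BaF3 cells stably transfected with EGFR mutants were exposed for 48 h at 37°C to 8 compound concentrations (top 10 µM, 1/3 dilutions, 0.1% DMSO). Growth was read by MTS at 490 nm after 1-4 h, in duplicate; IC50 was derived from inhibition rates versus DMSO control.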

Test [2] has as its target T2, various mutants of kinase EGFR (BaF3 cell lines stably transfected with kinase) (Homo sapiens, UniProt P00533, C797S/L858R/T790M).
T2 construct: expressed in transfected cells; host or cells: BaF3
Particulars: BaF3 cell line stably transfected with EGFR L858R/T790M/C797S, read-out: L858R/T790M/ C797S growth inhibitory activity IC50. An outline of the steps:
as §1

For test [3], the target named is T3, various mutants of kinase EGFR (BaF3 cell lines stably transfected with kinase) (Homo sapiens, UniProt P00533, L858R).
T3 construct: expressed in transfected cells; host or cells: BaF3
T3 sequence (P00533 25-1210 L858R): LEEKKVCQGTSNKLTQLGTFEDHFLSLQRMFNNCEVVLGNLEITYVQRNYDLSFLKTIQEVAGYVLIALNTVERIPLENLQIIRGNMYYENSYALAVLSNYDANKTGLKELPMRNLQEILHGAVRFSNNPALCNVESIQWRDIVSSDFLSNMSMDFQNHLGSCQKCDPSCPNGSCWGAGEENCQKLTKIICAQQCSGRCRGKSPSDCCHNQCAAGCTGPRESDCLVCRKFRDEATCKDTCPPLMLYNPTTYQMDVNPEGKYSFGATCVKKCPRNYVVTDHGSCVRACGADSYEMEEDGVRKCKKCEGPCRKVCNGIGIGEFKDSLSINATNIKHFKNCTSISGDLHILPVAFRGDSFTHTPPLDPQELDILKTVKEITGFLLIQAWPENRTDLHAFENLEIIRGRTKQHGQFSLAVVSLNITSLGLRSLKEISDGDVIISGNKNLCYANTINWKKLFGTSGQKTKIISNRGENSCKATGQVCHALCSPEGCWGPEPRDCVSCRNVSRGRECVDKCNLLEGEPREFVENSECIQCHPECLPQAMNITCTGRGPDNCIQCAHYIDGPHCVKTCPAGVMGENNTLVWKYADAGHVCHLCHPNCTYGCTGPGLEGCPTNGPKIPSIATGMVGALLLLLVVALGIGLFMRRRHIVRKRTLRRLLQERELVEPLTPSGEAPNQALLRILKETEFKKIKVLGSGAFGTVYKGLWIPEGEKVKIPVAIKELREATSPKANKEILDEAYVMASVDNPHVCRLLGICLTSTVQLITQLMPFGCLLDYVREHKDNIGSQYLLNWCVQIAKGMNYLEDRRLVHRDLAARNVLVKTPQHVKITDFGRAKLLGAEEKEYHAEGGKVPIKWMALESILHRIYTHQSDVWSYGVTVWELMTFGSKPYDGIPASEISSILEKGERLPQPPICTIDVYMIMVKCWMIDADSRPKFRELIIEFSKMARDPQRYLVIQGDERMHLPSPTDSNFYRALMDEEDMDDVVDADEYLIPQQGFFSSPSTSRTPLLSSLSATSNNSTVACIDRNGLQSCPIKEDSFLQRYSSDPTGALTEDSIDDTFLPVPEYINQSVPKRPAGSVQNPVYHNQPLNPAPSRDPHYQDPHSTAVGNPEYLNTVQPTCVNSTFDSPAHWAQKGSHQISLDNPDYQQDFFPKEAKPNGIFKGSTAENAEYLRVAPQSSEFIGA
Particulars: BaF3 cell line stably transfected with EGFR L858R, read-out: L858R growth inhibitory activity IC50. The procedure, abridged:
as §1

Test [4] has as its target T4, various mutants of kinase EGFR (BaF3 cell lines stably transfected with kinase) (Homo sapiens, UniProt P00533, L858R/T790M).
T4 construct: expressed in transfected cells; host or cells: BaF3
Particulars: BaF3 cell line stably transfected with EGFR L858R/T790M, read-out: L858R/ T790M growth inhibitory activity IC50. The procedure, abridged: as §1

Test [5] concerns the target T5, various mutants of kinase EGFR (BaF3 cell lines stably transfected with kinase) (Homo sapiens, UniProt P00533, T790M/C797S, form not given).
T5 construct: other: BaF3 cells stably transfected with EGFR Δ19Del/T790M/C797S; MTS, 48; other: BaF3 cell line stably transfected with EGFR Δ19Del/T790M/C7
Particulars: BaF3 cell line stably transfected with EGFR Δ19Del/T790M/C797S, read-out: Δ19Del/T790M/ C797S growth inhibitory activity IC50. The procedure, abridged: as §1

Test [6] has as its target T6, various mutants of kinase EGFR (BaF3 cell lines stably transfected with kinase) (Homo sapiens, UniProt P00533, T790M, form not given).
T6 construct: other: BaF3 cells stably transfected with EGFR Δ19Del/T790M; MTS, 48 h; other: BaF3 cell line stably transfected with EGFR Δ19Del/T790M; MTS, 48
Particulars: BaF3 cell line stably transfected with EGFR Δ19Del/T790M, read-out: Δ19Del/ T790M growth inhibitory activity IC50. The procedure, abridged: as §1

T2 sequence (P00533 25-1210 T790M/C797S/L858R): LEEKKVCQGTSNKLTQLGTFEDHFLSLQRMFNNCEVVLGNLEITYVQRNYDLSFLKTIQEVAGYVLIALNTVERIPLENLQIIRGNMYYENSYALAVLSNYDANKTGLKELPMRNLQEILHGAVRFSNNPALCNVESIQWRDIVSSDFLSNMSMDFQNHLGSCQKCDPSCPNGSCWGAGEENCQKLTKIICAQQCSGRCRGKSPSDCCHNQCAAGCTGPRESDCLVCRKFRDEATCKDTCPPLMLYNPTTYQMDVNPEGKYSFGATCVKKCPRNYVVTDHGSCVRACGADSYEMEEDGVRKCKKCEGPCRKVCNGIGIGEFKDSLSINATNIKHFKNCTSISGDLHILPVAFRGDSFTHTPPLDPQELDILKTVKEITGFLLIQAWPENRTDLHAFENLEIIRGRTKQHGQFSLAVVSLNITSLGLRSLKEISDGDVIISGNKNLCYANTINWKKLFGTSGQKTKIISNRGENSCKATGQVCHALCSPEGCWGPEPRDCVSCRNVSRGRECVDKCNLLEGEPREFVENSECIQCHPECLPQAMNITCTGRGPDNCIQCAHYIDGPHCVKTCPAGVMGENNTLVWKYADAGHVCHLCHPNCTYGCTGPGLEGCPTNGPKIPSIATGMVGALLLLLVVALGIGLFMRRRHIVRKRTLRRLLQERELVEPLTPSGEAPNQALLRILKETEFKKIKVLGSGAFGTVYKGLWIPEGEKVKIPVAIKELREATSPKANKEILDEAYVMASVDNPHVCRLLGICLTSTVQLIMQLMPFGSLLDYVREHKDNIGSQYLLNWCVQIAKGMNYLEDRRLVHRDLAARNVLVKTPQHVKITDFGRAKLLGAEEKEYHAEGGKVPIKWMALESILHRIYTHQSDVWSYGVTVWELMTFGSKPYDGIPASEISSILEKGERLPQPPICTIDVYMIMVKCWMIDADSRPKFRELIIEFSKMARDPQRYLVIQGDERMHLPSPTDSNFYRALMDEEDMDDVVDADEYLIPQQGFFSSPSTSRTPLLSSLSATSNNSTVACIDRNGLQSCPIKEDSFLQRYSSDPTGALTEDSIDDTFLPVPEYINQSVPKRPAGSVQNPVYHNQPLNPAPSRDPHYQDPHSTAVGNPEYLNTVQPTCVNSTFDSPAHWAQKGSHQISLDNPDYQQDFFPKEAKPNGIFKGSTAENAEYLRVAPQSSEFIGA
T6 sequence (P00533 with tags, fused parts or gaps DEL746-750/T790M, form open): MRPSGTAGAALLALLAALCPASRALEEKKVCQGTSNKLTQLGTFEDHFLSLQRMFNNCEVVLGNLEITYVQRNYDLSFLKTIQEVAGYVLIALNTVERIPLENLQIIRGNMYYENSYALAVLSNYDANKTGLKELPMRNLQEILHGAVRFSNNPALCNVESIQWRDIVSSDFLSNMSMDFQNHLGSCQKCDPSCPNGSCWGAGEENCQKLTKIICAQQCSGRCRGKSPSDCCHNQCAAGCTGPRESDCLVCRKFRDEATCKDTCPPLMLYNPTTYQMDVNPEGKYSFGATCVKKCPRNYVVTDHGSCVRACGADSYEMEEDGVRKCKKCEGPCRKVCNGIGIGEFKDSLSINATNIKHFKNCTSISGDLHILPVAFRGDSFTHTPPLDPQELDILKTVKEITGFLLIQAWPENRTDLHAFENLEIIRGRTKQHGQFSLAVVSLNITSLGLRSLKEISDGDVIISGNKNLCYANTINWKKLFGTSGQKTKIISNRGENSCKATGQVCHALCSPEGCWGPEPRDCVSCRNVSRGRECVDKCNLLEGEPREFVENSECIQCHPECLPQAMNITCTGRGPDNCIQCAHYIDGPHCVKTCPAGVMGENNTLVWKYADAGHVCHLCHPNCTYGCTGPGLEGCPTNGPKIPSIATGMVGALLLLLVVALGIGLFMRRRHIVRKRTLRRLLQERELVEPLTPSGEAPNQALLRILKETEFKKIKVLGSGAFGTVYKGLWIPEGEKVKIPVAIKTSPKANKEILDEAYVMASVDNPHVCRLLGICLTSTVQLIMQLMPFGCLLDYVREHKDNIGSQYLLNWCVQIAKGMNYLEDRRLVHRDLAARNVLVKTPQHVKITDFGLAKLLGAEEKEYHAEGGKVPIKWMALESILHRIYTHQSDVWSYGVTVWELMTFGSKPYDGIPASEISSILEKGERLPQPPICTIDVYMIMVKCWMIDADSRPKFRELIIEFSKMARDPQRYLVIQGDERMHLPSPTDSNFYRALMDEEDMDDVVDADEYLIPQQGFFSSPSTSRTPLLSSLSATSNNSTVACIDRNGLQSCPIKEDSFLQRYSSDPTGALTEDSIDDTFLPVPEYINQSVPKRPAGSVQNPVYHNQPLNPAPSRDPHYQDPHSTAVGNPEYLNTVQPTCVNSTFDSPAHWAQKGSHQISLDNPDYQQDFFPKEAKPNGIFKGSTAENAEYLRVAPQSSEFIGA
T4 sequence (P00533 25-1210 T790M/L858R): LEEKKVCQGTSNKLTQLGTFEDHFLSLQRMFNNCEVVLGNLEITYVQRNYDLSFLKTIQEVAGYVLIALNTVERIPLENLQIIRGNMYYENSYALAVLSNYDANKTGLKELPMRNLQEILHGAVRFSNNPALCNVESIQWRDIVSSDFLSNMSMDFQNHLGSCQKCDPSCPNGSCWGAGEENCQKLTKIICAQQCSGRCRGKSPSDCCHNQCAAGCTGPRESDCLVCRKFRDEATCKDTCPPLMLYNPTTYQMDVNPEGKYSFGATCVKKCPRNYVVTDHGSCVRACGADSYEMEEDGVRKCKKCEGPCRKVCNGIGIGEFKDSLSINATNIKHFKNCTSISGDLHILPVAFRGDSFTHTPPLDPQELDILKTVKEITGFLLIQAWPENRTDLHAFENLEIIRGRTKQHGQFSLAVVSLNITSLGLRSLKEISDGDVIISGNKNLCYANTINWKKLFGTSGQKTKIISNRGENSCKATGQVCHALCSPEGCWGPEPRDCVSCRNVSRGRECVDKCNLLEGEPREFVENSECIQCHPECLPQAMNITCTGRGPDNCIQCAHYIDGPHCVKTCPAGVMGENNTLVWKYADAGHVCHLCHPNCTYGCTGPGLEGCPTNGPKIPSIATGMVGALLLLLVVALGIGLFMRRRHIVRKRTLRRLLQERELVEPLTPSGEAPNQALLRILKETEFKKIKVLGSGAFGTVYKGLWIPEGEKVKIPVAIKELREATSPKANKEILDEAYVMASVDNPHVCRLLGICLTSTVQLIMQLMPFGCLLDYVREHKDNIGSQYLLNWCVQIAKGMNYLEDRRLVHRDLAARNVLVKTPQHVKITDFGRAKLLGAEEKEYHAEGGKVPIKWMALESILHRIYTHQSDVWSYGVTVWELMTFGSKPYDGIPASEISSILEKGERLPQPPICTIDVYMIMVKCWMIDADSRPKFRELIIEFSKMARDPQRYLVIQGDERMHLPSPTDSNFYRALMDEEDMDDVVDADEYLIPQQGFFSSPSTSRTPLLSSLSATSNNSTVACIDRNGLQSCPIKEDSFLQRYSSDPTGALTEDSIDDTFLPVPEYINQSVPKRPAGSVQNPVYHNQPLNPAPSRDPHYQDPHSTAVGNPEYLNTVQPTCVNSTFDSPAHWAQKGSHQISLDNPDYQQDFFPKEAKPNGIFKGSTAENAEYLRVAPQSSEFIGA

In the case of `CCc1cc(Nc2ncc(Br)c(Nc3ccc4nccnc4c3N(C)S(C)(=O)=O)n2)c(OC)cc1N1CCC(N2CCN(C)CC2)CC1` [Compound I-396], the IC50 in test [1] was 50 to 500 nM; in test [2], ≤ 50 nM; in test [3] it was 50 to 500 nM; in test [4] it was 50 to 500 nM; in test [5] it was ≤ 50 nM; in test [6] it was 50 to 500 nM.
Turning to `CCc1cc(Nc2ncc(Br)c(Nc3ccc4nccnc4c3N(C)S(C)(=O)=O)n2)c(OC)cc1N1CCN(C2CN(C)C2)CC1` [Compound I-398], the IC50 in test [1], in test [2], in test [3], in test [4], in test [5] and in test [6] was ≤ 50 nM in each case.
For `CCc1cc(Nc2ncc(Br)c(Nc3ccc4nccnc4c3N(C)S(C)(=O)=O)n2)c(OC)cc1N1CCC2(CC1)CC(N(C)C)C2` [Compound I-399], the IC50 in test [1] is 50 to 500 nM; in test [2] it was ≤ 50 nM; in test [3] it was 50 to 500 nM; in test [4] it was 50 to 500 nM; in test [5] it was ≤ 50 nM; in test [6], 50 to 500 nM.
In the case of `COc1cc(N2CCC(N3CCN(C)CC3)CC2)ccc1Nc1ncc(Br)c(Nc2ccc3nccnc3c2NS(C)(=O)=O)n1` [Compound I-401], the IC50 in test [1] was 50 to 500 nM; in test [2], 50 to 500 nM; in test [3] it was 50 to 500 nM; in test [4], ≤ 50 nM; in test [5], 50 to 500 nM; in test [6], 50 to 500 nM.
In the case of `COc1cc(N2CCC(N3CCN(C)CC3)CC2)c(C)cc1Nc1ncc(Br)c(Nc2ccc3nccnc3c2NS(C)(=O)=O)n1` [Compound I-402], the IC50 is ≤ 50 nM in test [1]; ≤ 50 nM in test [2]; 50 to 500 nM in test [3]; ≤ 50 nM in test [4]; ≤ 50 nM in test [5]; ≤ 50 nM in test [6].
As for `CCc1cc(Nc2ncc(Br)c(Nc3ccc4nccnc4c3NS(C)(=O)=O)n2)c(OC)cc1N1CCC(N2CCN(C)CC2)CC1` [Compound I-403], the IC50 in test [1], in test [2], in test [3], in test [4], in test [5] and in test [6] was ≤ 50 nM each time.
For the compound `CCc1cc(Nc2ncc(Br)c(Nc3ccc4nccnc4c3NS(C)(=O)=O)n2)c(OC)nc1N1CCC(N2CCN(C)CC2)CC1` [Compound I-404], the IC50 in test [1] was 50 to 500 nM; in test [2], ≤ 50 nM; in test [3], ≤ 50 nM; in test [4], ≤ 50 nM; in test [5] it was ≤ 50 nM; in test [6] it was ≤ 50 nM.
With `CCc1cc(Nc2ncc(Br)c(Nc3ccc4nccnc4c3NS(C)(=O)=O)n2)c(OC(F)(F)F)cc1N1CCC(N2CCN(C)CC2)CC1` [Compound I-405], the IC50 was 50 to 500 nM in test [1]; 50 to 500 nM in test [2]; 50 to 500 nM in test [3]; 50 to 500 nM in test [4]; 50 to 500 nM in test [5]; ≤ 50 nM in test [6].
As for `COc1cc(N2CCC(N3CCN(C)CC3)CC2)c(C(C)C)cc1Nc1ncc(Br)c(Nc2ccc3nccnc3c2NS(C)(=O)=O)n1` [Compound I-406], the IC50 in test [1], in test [2], in test [3], in test [4], in test [5] and in test [6] was 50 to 500 nM in each case.
As to `COc1cc(N2CCC(N3CCN(C)CC3)CC2)c(C2CC2)cc1Nc1ncc(Br)c(Nc2ccc3nccnc3c2NS(C)(=O)=O)n1` [Compound I-407], the IC50 in test [1], in test [2], in test [3], in test [4], in test [5] and in test [6] was ≤ 50 nM each time.
On to `COc1cc(N2CCC(N3CCN(C)CC3)CC2)c(CC2CC2)cc1Nc1ncc(Br)c(Nc2ccc3nccnc3c2NS(C)(=O)=O)n1` [Compound I-408], for which the IC50 in test [1] is 50 to 500 nM; in test [2] it was ≤ 50 nM; in test [3], ≤ 50 nM; in test [4], ≤ 50 nM; in test [5], ≤ 50 nM; in test [6] it was ≤ 50 nM.
Take `CCc1cc(Nc2ncc(Br)c(Nc3ccc4nccnc4c3NS(C)(=O)=O)n2)ccc1N1CCC(N2CCN(C)CC2)CC1` [Compound I-409]: the IC50 in test [1], in test [2], in test [3], in test [4], in test [5] and in test [6] was ≤ 50 nM throughout.
With `CCc1cc(Nc2ncc(Br)c(Nc3ccc4nccnc4c3NS(C)(=O)=O)n2)c(OC)cc1N1CCC(N(C)C)CC1` [Compound I-410], the IC50 in test [1], in test [2], in test [3], in test [4], in test [5] and in test [6] was ≤ 50 nM in each case.
Regarding `CCc1cc(Nc2ncc(Br)c(Nc3ccc4nccnc4c3NS(C)(=O)=O)n2)c(OC)cc1N1CCN(C)CC1` [Compound I-411], the IC50 in test [1], in test [2], in test [3], in test [4], in test [5] and in test [6] was ≤ 50 nM in each case.
Regarding `CCc1cc(Nc2ncc(Br)c(Nc3ccc4nccnc4c3NS(C)(=O)=O)n2)c(OC)cc1N1CCC(N(C)C)C1` (stereo not drawn) [Compound I-412], the IC50 in test [1], in test [2], in test [3], in test [4], in test [5] and in test [6] was ≤ 50 nM in each case.
Take `COc1cc(N2CCC(N3CCN(C)CC3)CC2)ccc1Nc1ncc(Br)c(Nc2ccc3nccnc3c2NS(=O)(=O)C(C)C)n1` [Compound I-413]: the IC50 in test [1], in test [2], in test [3], in test [4], in test [5] and in test [6] was 50 to 500 nM each time.
For `COc1cc(N2CCC(N3CCN(C)CC3)CC2)c(C)cc1Nc1ncc(Br)c(Nc2ccc3nccnc3c2NS(=O)(=O)C(C)C)n1` [Compound I-414], the IC50 in test [1] is 50 to 500 nM; in test [2], ≤ 50 nM; in test [3], 50 to 500 nM; in test [4] it was ≤ 50 nM; in test [5] it was ≤ 50 nM; in test [6], ≤ 50 nM.
`CCc1cc(Nc2ncc(Br)c(Nc3ccc4nccnc4c3NS(=O)(=O)C(C)C)n2)c(OC)cc1N1CCC(N2CCN(C)CC2)CC1` [Compound I-415]: the IC50 in test [1], in test [2], in test [3], in test [4], in test [5] and in test [6] was ≤ 50 nM in each case.
With `COc1cc(N2CCC(N3CCN(C)CC3)CC2)ccc1Nc1nc(Nc2ccc3nccnc3c2N(C)S(C)(=O)=O)c2sccc2n1` [II-1-1], the IC50 in test [1] lay within 500 to 2500 nM; in test [2] it was 500 to 2500 nM; in test [3], 500 to 2500 nM; in test [4] it was 500 to 2500 nM; in test [5] it was 50 to 500 nM; in test [6], 500 to 2500 nM.
In the case of `COc1cc(N2CCC(N3CCN(C)CC3)CC2)c(C)cc1Nc1nc(Nc2ccc3nccnc3c2N(C)S(C)(=O)=O)c2sccc2n1` [II-1-2], the IC50 in test [1] is 50 to 500 nM; in test [2], 50 to 500 nM; in test [3] it was 50 to 500 nM; in test [4], 50 to 500 nM; in test [5] it was ≤ 50 nM; in test [6], 50 to 500 nM.
For `CCc1cc(Nc2nc(Nc3ccc4nccnc4c3N(C)S(C)(=O)=O)c3sccc3n2)c(OC)cc1N1CCC(N2CCN(C)CC2)CC1` [II-1-3], the IC50 was 50 to 500 nM in test [1]; ≤ 50 nM in test [2]; 50 to 500 nM in test [3]; 50 to 500 nM in test [4]; ≤ 50 nM in test [5]; 50 to 500 nM in test [6].
For `COc1nc(N2CCC(N3CCN(C)CC3)CC2)ccc1Nc1nc(Nc2ccc3nccnc3c2N(C)S(C)(=O)=O)c2sccc2n1` [II-1-4], the IC50 in test [1], in test [2], in test [3], in test [4], in test [5] and in test [6] was 500 to 2500 nM each time.

The values above are taken from patent US20230310428A1, “EGFR INHIBITOR AND PREPARATION METHOD AND USE THEREOF” (HONGYUN BIOTECH CO., LTD., priority 2020, published 2023).
